For 32 compounds, IC50 results are on record in patent US12331068B2, “Compositions and methods for inhibiting CD73” (Peloton Therapeutics, Inc., priority 2018, dated 2025).

Usually pIC50 stands for the IC50 on a negative log10 scale, so that one unit is a factor of ten.

One assay addresses T1, Human CD73 (Homo sapiens, UniProt P21589).
T1 construct: purchased R&D Systems; host or cells: CHO cells
T1 sequence (P21589 27-549): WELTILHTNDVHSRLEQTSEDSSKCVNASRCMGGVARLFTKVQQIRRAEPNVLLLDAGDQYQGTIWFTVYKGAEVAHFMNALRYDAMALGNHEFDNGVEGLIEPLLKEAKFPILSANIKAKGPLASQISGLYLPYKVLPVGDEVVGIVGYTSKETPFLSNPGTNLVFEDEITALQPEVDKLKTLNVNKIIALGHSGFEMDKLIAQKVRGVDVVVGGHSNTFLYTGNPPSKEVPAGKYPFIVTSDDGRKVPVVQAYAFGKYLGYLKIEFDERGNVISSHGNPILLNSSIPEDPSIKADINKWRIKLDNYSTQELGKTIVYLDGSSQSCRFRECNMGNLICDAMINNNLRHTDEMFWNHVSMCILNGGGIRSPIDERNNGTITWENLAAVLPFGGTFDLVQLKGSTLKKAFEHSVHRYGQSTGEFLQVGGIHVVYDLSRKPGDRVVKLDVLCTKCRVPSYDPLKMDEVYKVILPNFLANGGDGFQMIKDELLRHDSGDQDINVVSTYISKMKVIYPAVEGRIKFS
Put plainly: CD73 Enzyme Assay (EnzChek PNP/MESG kinetic readout of AMP hydrolysis). In kind it is biochemical. On the procedure:
A compound of the present disclosure (5 μL) was transferred to a 384-well assay plate. The compound was added in a 15 point, 3-fold serial dilution (300 μM to 0.0002 μM) in DMSO. […] The plate was immediately placed in a plate reader (Synergy 2 or Spark 10), and a reading was taken every minute for 10 to 20 minutes in a kinetic run at 360 nm. The linear portion of the curve was used to determine the observed rate (initial velocity). Low signal controls containing 100 μM adenosine 5′-(α,β-methylene) diphosphate and high signal controls containing no compound were measured for each plate.
IC50 values were calculated using Dotmatics template equation for 4-parameter fit. Results are expressed as % inhibition using the following equation: […]

Assay [1] addresses T2, CD73 on U138 human neuroglioma cells (Homo sapiens, UniProt P21589).
T2 construct: U138 cells were obtained from ATCC and cultured in DMEM with 10% FBS; host or cells: U138 human neuroglioma cells
T2 sequence (P21589 27-549): T1 sequence (P21589 27-549)
The assay can be described thus: CD73 Cell-Based Assay (inorganic phosphate from AMP, malachite green). As to conditions: AMP substrate, 2 hours at 37° C. The protocol: U138 human neuroglioma cells were used in these experiments. U138 cells were obtained from ATCC and cultured in DMEM with 10% FBS. 2500 cells were seeded into 96-well plate with 100 μL of media the day before the experiment. […] After washing, 100 μL of buffer was added to each well, then 100 μL of a mixture of AMP substrate (200 μM) and diluted compound was added to each well. The cells were incubated at 37° C. (with 5% CO2) for 2 hours. 50 μL of supernatant was transferred to a 96-well assay plate and the concentration of inorganic phosphate was determined using malachite green reagent (R&D System; Cat: DY996).

Where [2] appears, read: 0.25 nM hCD73, 25 μM AMP, read-out: CD73 Enzyme Assay IC50.
[3] abbreviates: read-out: CD73 Cell-Based assay IC50.

Structures are written as SMILES. pIC50: −log10 of the molar value. Read-outs that look alike come from different tables or passages of the source.

For the compound `C[C@@H](Nc1c(C#N)c(Cl)nc2c1ncn2[C@@H]1O[C@H](COP(=O)(O)CP(=O)(O)O)[C@@H](O)[C@H]1O)c1ccc(F)cn1` [Compound 225], the pIC50 (at Human CD73 (setting [2]); in assay [1] (setting [3])) was more than 8.00 throughout.

`C[C@@H](Nc1c(C#N)c(Cl)nc2c1ncn2[C@@H]1O[C@H](COP(=O)(O)CP(=O)(O)O)[C@@H](O)[C@H]1O)c1ccccc1F` [Compound 208, (((((2R,3S,4R,5R)-5-(5-chloro-6-cyano-7-(((R)-1-(2-fluorophenyl)ethyl)amino)-3H-imidazo[4,5-b]pyridin-3-yl)-3,4-dihydroxytetrahydrofuran-2-yl)methoxy)(hydroxy)phosphoryl)methyl)phosphonic acid]: the negative logarithm of the IC50 (pIC50) (at Human CD73 (setting [2]); in assay [1] (setting [3])) was more than 8.00 throughout.

Consider `N#Cc1c(Cl)nc2c(ncn2[C@@H]2O[C@H](CS(=O)(=O)CP(=O)(O)O)[C@@H](O)[C@H]2O)c1NC1CC(F)C1` (some centres unmarked) [Compound 117], for which the negative logarithm of the IC50 (pIC50) (at Human CD73 (setting [2]); in assay [1] (setting [3])) was more than 8.00 throughout.

As to `C[C@H](Nc1c(C#N)c(Cl)nc2c1ccn2[C@@H]1O[C@H](COP(=O)(O)CP(=O)(O)O)[C@@H](O)[C@H]1O)c1ccc(F)cn1` [Compound 212], the negative-log IC50 (pIC50) (at Human CD73 (setting [2]); in assay [1] (setting [3])) was more than 8.00 in each case.

On to `N#Cc1c(Cl)nc2c(ccn2[C@@H]2O[C@H](CO[C@H](CO)P(=O)(O)O)[C@@H](O)[C@H]2O)c1N1CC2CCCC2C1` (stereo partly drawn) [Compound 50, ((1S)-1-(((2R,3S,4R,5R)-5-(6-chloro-5-cyano-4-(hexahydrocyclopenta[c]pyrrol-2 (1H)-yl)-1H-pyrrolo[2,3-b]pyridin-1-yl)-3,4-dihydroxytetrahydrofuran-2-yl)methoxy)-2-hydroxyethyl)phosphonic acid], for which the pIC50 (at Human CD73 (setting [2]); in assay [1] (setting [3])) was more than 8.00 throughout.

As to `N#Cc1c(Cl)nc2c(ccn2[C@@H]2O[C@H](CS(=O)(=O)CP(=O)(O)O)[C@@H](O)[C@H]2O)c1N1CC2CC2C1` (some centres unmarked) [Compound 22], the negative-log IC50 (pIC50) (at Human CD73 (setting [2]); in assay [1] (setting [3])) was more than 8.00 in each case.

Regarding `N#Cc1c(Cl)nc2c(ccn2[C@@H]2O[C@H](COCP(=O)(O)O)[C@@H](O)[C@H]2O)c1N[C@H]1CCC(F)(F)C1` [Compound 4], the negative-log IC50 (pIC50) (at Human CD73 (setting [2]); in assay [1] (setting [3])) was more than 8.00 throughout.

Regarding `N#Cc1nc2c(ccn2[C@@H]2O[C@H](CS(=O)(=O)CP(=O)(O)O)[C@@H](O)[C@H]2O)c(NC2CC(F)(F)C2)c1C#N` [Compound 177], the pIC50 (on Human CD73 (setting [2]); in assay [1] (setting [3])) was more than 8.00 each time.

With `N#Cc1c(Cl)nc2c(ccn2[C@@H]2O[C@H](COCP(=O)(O)O)[C@@H](O)[C@H]2O)c1NC1CCC1` [Compound 9], the pIC50 (at Human CD73 (setting [2]); in assay [1] (setting [3])) was more than 8.00 throughout.

With `N#Cc1c(Cl)nc2c(ccn2[C@@H]2O[C@H](COP(=O)(O)CP(=O)(O)O)[C@@H](O)[C@H]2O)c1N1CC2CC2C1` (some centres unmarked) [Compound 29], the pIC50 (at Human CD73 (setting [2]); in assay [1] (setting [3])) was more than 8.00 each time.

Take `N#Cc1c(Cl)nc2c(ncn2[C@@H]2O[C@H](COCP(=O)(O)O)[C@@H](O)[C@H]2O)c1N1CC[C@H](F)C1` [Compound 84]: the pIC50 (at Human CD73 (setting [2]); in assay [1] (setting [3])) was more than 8.00 in each case.

`C[C@@H](Nc1c(C#N)c(Cl)nc2c1cnn2[C@@H]1O[C@H](CS(=O)(=O)CP(=O)(O)O)[C@@H](O)[C@H]1O)c1ccccc1F` [Compound 183]: the pIC50 (on Human CD73 (setting [2]); in assay [1] (setting [3])) was more than 8.00 in each case.

As to `N#Cc1c(Cl)nc2c(ncn2[C@@H]2O[C@H](COCP(=O)(O)O)[C@@H](O)[C@H]2O)c1NC1CC2CC2C1` (some centres unmarked) [Compound 56], the pIC50 (at Human CD73 (setting [2]); in assay [1] (setting [3])) was more than 8.00 each time.

Regarding `C[C@H](Nc1c(C#N)c(Cl)nc2c1ncn2[C@@H]1O[C@H](COP(=O)(O)CP(=O)(O)O)[C@@H](O)[C@H]1O)c1ccc(C#N)cc1` [Compound 227], the pIC50 (on Human CD73 (setting [2]); in assay [1] (setting [3])) was more than 8.00 in each case.

Take `N#Cc1c(Cl)nc2c(cnn2[C@@H]2O[C@H](COCP(=O)(O)O)[C@@H](O)[C@H]2O)c1N1CC[C@@H](F)C1` [Compound 90]: the negative logarithm of the IC50 (pIC50) (at Human CD73 (setting [2]); in assay [1] (setting [3])) was more than 8.00 throughout.

Consider `C[C@@H](Nc1c(C#N)c(Cl)nc2c1ncn2[C@@H]1O[C@H](COP(=O)(O)CP(=O)(O)O)[C@@H](O)[C@H]1O)c1ccc(F)cc1` [Compound 214], for which the pIC50 (on Human CD73; in assay [1] (setting [3])) was more than 8.00 throughout.

Take `N#Cc1nc2c(ccn2[C@@H]2O[C@H](CS(=O)(=O)CP(=O)(O)O)[C@@H](O)[C@@H]2F)c(NC2CC(F)(F)C2)c1C#N` [Compound 174]: the pIC50 (at Human CD73 (setting [2]); in assay [1] (setting [3])) was 7.00 to 8.00 throughout.

As to `N#Cc1c(Cl)nc2c(ccn2[C@@H]2O[C@H](COP(=O)(O)CP(=O)(O)O)[C@@H](O)[C@@H]2F)c1N1CCC(F)(F)C1` [Compound 96], the pIC50 (at Human CD73 (setting [2]); in assay [1] (setting [3])) was more than 8.00 in each case.

Consider `N#Cc1c(Cl)nc2c(ncn2[C@@H]2O[C@H](COP(=O)(O)CP(=O)(O)O)[C@@H](O)[C@H]2O)c1NC1CCCC1` [Compound 209], for which the negative logarithm of the IC50 (pIC50) (on Human CD73 (setting [2]); in assay [1] (setting [3])) was more than 8.00 throughout.

On to `N#Cc1c(Cl)nc2c(cnn2[C@@H]2O[C@H](COP(=O)(O)CP(=O)(O)O)[C@@H](O)[C@@H]2F)c1N1CCC(F)(F)C1` [Compound 95, (((((2R,3R,4S,5R)-5-(6-chloro-5-cyano-4-(3,3-difluoropyrrolidin-1-yl)-1H-pyrazolo[3,4-b]pyridin-1-yl)-4-fluoro-3-hydroxytetrahydrofuran-2-yl)methoxy)(hydroxy)phosphoryl)methyl)phosphonic acid], for which the negative logarithm of the IC50 (pIC50) (on Human CD73 (setting [2]); in assay [1] (setting [3])) was more than 8.00 throughout.

For `N#Cc1cnc2c(ccn2[C@@H]2O[C@H](COP(=O)(O)CP(=O)(O)O)[C@@H](O)[C@H]2O)c1NC1CCCC1` [Compound 48], the negative-log IC50 (pIC50) (at Human CD73 (setting [2]); in assay [1] (setting [3])) was more than 8.00 throughout.

Turning to `N#Cc1c(Cl)nc2c(ccn2[C@@H]2O[C@H](COCP(=O)(O)O)[C@@H](O)[C@H]2O)c1NC1CC2CC2C1` (some centres unmarked) [Compound 26], the pIC50 (on Human CD73 (setting [2]); in assay [1] (setting [3])) was more than 8.00 each time.

With `N#Cc1c(Cl)nc2c(ccn2[C@@H]2O[C@H](COCP(=O)(O)O)[C@@H](O)[C@H]2O)c1N1CC2CCCC2C1` (some centres unmarked) [Compound 11], the pIC50 (at Human CD73 (setting [2]); in assay [1] (setting [3])) was more than 8.00 each time.

Turning to `C[C@@H](Nc1c(C#N)c(Cl)nc2c1ccn2[C@@H]1O[C@H](COCP(=O)(O)O)[C@@H](O)[C@H]1O)c1ccc(F)cc1` [Compound 7], the negative-log IC50 (pIC50) (on Human CD73 (setting [2]); in assay [1] (setting [3])) was more than 8.00 each time.

Take `N#Cc1nc2c(ccn2[C@@H]2O[C@H](COP(=O)(O)CP(=O)(O)O)[C@@H](O)[C@H]2O)c(NC2CCCC2)c1Cl` [Compound 211]: the negative-log IC50 (pIC50) (on Human CD73 (setting [2]); in assay [1] (setting [3])) was more than 8.00 in each case.

As to `N#Cc1nc2c(ccn2[C@@H]2O[C@H](COCP(=O)(O)O)[C@@H](O)[C@H]2O)c(NC2CCCC2)c1C#N` [Compound 104], the pIC50 (at Human CD73 (setting [2]); in assay [1] (setting [3])) was more than 8.00 each time.

Turning to `O=P(O)(O)CS(=O)(=O)C[C@H]1O[C@@H](n2ccc3c(NC4CCCC4)cc(Cl)nc32)[C@H](O)[C@@H]1O` [Compound 323], the negative-log IC50 (pIC50) was more than 8.00 on Human CD73 (setting [2]), more than 8.00 in assay [1] (setting [3]) and 8.85 in assay [1] (read-out: IC50).

For `N#Cc1c(Cl)nc2c(ccn2[C@@H]2O[C@H](CS(=O)(=O)CP(=O)(O)O)[C@@H](O)[C@H]2O)c1N[C@H]1CCC(F)(F)C1` [Compound 5], the negative logarithm of the IC50 (pIC50) (at Human CD73 (setting [2]); in assay [1] (setting [3])) was more than 8.00 in each case.

`C[C@H](Nc1c(C#N)c(Cl)nc2c1cnn2[C@@H]1O[C@H](CS(=O)(=O)CP(=O)(O)O)[C@@H](O)[C@H]1O)c1ccccc1F` [Compound 199]: the negative-log IC50 (pIC50) (on Human CD73 (setting [2]); in assay [1] (setting [3])) was more than 8.00 each time.

For `C[C@H](Nc1c(C#N)c(Cl)nc2c1ccn2[C@@H]1O[C@H](CS(=O)(=O)CP(=O)(O)O)[C@@H](O)[C@H]1O)c1ccc(C#N)cc1` [Compound 198], the negative-log IC50 (pIC50) (on Human CD73 (setting [2]); in assay [1] (setting [3])) was more than 8.00 in each case.

As for `C[C@@H](Nc1c(C#N)c(Cl)nc2c1ncn2[C@@H]1O[C@H](COP(=O)(O)CP(=O)(O)O)[C@@H](O)[C@H]1O)c1ccc(C#N)cc1` [Compound 226], the pIC50 (on Human CD73 (setting [2]); in assay [1] (setting [3])) was more than 8.00 each time.

Regarding `N#Cc1c(Cl)nc2c(ccn2[C@@H]2O[C@H](COP(=O)(O)CP(=O)(O)O)[C@@H](O)[C@@H]2F)c1NC1CC(F)(F)C1` [Compound 228], the pIC50 (at Human CD73 (setting [2]); in assay [1] (setting [3])) was more than 8.00 each time.
